Source: ChEMBL document CHEMBL1909046, “DrugMatrix in vitro pharmacology data”

Tests used:
[1] = target: T1, Alpha-1B adrenergic receptor (Rattus norvegicus, UniProt P15823); assay: DRUGMATRIX: Alpha-1B adrenergic receptor radioligand binding (ligand: prazosin); type: cell membranes, Wistar, Liver, Membrane; details: Not Active = under 50% inhibition at 10 µM
T1 sequence (P15823 whole entry): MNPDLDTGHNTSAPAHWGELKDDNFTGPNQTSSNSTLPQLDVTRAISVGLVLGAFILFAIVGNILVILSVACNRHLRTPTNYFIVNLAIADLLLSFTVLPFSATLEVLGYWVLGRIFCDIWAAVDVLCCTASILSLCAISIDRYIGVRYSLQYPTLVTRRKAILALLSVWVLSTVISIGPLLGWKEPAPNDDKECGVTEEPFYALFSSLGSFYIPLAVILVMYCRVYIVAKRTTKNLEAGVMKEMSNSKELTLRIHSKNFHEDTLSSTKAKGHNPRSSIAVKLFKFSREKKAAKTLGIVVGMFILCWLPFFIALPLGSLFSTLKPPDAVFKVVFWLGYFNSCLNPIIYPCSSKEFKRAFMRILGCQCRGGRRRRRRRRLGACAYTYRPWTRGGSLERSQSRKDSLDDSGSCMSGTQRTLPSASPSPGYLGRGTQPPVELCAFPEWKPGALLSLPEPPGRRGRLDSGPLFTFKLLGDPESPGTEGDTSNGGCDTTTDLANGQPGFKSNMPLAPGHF

Thromboxane-A synthase = target: T2, Thromboxane-A synthase (Homo sapiens, UniProt P24557); assay: biochemical; type: tissue-based, Platelet; details: platelet;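 further: enzyme inhibition assay with PGH2 supplied as substrate; in other assays of this panel Not Active means under 50% inhibition at 10 µM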
T2 sequence (P24557 whole entry): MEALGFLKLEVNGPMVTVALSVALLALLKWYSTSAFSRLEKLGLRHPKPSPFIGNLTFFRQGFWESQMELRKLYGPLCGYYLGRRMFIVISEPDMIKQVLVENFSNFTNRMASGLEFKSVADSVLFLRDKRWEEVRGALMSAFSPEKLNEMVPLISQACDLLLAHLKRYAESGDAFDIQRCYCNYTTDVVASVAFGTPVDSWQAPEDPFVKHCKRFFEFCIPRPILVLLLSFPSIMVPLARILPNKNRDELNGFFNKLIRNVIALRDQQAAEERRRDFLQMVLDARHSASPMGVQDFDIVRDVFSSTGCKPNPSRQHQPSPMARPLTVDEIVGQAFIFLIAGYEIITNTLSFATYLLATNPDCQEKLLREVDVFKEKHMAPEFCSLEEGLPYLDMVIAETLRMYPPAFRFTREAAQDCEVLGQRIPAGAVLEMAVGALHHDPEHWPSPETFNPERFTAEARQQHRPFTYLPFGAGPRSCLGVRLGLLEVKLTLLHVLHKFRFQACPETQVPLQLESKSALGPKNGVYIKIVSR

D(3) dopamine receptor = D(3) dopamine receptor (Homo sapiens, UniProt P35462); assay: DRUGMATRIX: Dopamine D3 radioligand binding (ligand: [3H] Spiperone); type: cell membranes, CHO, Membrane; details: cho
[2] = target: T3, Angiotensin-converting enzyme (Oryctolagus cuniculus, UniProt P12822); type: tissue-based, Lung;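 further: enzymatic inhibition of angiotensin-converting enzyme measured with FAPGG as the substrate; in other assays of this panel Not Active means under 50% inhibition at 10 µM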
T3 sequence (P12822 whole entry): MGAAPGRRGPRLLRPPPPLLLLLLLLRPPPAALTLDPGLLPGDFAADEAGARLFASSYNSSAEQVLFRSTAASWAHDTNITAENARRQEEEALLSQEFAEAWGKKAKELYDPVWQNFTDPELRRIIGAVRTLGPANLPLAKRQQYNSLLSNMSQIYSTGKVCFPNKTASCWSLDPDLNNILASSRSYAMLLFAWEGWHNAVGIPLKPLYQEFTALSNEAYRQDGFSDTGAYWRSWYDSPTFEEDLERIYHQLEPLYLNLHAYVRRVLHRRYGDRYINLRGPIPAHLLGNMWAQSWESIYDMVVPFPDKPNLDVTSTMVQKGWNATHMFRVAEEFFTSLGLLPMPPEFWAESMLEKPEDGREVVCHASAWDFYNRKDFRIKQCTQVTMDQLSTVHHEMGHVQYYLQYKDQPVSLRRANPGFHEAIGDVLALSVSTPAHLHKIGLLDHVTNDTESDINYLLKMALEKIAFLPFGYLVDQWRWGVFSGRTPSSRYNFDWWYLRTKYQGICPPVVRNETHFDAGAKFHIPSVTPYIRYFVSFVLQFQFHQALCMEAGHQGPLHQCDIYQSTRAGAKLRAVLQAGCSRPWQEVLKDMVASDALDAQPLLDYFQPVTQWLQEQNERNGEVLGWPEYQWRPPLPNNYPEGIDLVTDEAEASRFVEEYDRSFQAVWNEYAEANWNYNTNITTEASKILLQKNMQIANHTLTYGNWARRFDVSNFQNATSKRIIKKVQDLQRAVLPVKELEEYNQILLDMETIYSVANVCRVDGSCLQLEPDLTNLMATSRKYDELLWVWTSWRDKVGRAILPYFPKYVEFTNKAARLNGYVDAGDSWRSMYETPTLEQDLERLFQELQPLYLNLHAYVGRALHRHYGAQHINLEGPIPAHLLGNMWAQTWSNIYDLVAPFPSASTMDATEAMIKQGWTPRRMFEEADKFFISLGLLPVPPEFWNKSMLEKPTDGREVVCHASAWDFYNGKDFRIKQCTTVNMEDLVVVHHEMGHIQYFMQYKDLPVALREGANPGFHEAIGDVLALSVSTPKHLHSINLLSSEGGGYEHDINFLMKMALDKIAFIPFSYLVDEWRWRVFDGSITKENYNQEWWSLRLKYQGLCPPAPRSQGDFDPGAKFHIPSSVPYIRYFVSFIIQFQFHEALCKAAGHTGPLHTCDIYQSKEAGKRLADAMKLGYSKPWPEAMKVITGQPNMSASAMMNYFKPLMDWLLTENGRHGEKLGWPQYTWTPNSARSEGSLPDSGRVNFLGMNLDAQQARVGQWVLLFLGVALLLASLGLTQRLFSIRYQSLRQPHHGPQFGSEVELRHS

Cytochrome P450 2A6 = target: T4, Cytochrome P450 2A6 (Homo sapiens, UniProt P11509); details: bti-tn-5b1-4; further: in other assays of this panel Not Active means under 50% inhibition at 10 µM
T4 sequence (P11509 whole entry): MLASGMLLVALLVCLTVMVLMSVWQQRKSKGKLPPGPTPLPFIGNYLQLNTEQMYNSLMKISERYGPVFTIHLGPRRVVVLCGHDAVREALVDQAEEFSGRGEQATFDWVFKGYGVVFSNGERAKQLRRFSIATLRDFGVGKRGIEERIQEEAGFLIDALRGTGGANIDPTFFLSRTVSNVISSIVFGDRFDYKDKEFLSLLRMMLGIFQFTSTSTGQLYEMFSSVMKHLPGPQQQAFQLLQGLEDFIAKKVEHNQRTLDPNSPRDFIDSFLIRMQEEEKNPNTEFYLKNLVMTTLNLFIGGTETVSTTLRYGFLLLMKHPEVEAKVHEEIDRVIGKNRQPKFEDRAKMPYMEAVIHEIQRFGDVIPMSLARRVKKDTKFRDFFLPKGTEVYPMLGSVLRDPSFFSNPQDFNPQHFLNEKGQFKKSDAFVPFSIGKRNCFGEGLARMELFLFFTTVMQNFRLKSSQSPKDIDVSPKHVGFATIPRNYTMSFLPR

Sequence of D(3) dopamine receptor (P35462 whole entry): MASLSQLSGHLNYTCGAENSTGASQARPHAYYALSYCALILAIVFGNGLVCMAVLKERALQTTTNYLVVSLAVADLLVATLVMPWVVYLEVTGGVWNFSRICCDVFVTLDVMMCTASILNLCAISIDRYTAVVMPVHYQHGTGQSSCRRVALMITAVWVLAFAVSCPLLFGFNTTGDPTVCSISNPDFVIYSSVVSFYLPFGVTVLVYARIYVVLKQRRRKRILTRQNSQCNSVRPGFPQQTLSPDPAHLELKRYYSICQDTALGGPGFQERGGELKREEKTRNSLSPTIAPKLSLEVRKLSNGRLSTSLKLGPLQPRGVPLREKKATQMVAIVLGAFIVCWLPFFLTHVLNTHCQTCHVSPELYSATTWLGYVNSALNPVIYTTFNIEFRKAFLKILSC

C[C@]12CC[C@@H]3c4ccc(O)cc4CC[C@H]3[C@@H]1CC[C@@H]2O [ESTRADIOL]
Not Active: IC50 [1] | IC50 (Thromboxane-A synthase) | IC50 (D(3) dopamine receptor) | IC50 [2] | IC50 (Cytochrome P450 2A6) | Ki (Cytochrome P450 2A6)

CC[C@@H](CO)NCCN[C@@H](CC)CO [ETHAMBUTOL]
Not Active: IC50 [1] | IC50 (Thromboxane-A synthase) | IC50 (D(3) dopamine receptor) | IC50 [2] | IC50 (Cytochrome P450 2A6) | Ki (Cytochrome P450 2A6)

CC1(C)O[C@@H]2C[C@H]3[C@@H]4C[C@H](F)C5=CC(=O)C=C[C@]5(C)[C@H]4[C@@H](O)C[C@]3(C)[C@]2(C(=O)CO)O1 [FLUNISOLIDE]
Not Active: IC50 [1] | IC50 (Thromboxane-A synthase) | IC50 (D(3) dopamine receptor) | IC50 [2] | IC50 (Cytochrome P450 2A6) | Ki (Cytochrome P450 2A6)

CC1(C)O[C@@H]2C[C@H]3[C@@H]4C[C@H](F)C5=CC(=O)C=C[C@]5(C)[C@@]4(F)[C@@H](O)C[C@]3(C)[C@]2(C(=O)CO)O1 [FLUOCINOLONE ACETONIDE]
Not Active: IC50 [1] | IC50 (Thromboxane-A synthase) | IC50 (D(3) dopamine receptor) | IC50 [2] | IC50 (Cytochrome P450 2A6) | Ki (Cytochrome P450 2A6)

CC1(C)O[C@@H]2C[C@H]3[C@@H]4C[C@H](F)C5=CC(=O)CC[C@]5(C)[C@H]4[C@@H](O)C[C@]3(C)[C@]2(C(=O)CO)O1 [FLURANDRENOLIDE]
Not Active: IC50 [1] | IC50 (Thromboxane-A synthase) | IC50 (D(3) dopamine receptor) | IC50 [2] | IC50 (Cytochrome P450 2A6) | Ki (Cytochrome P450 2A6)

Cc1ccc(S(=O)(=O)NC(=O)NN2CC3CCCC3C2)cc1 (configuration not stated) [GLICLAZIDE]
Not Active: IC50 [1] | IC50 (Thromboxane-A synthase) | IC50 (D(3) dopamine receptor) | IC50 [2] | IC50 (Cytochrome P450 2A6) | Ki (Cytochrome P450 2A6)

CC(C)Cc1ccc(C(C)C(=O)O)cc1 (configuration not stated) [IBUPROFEN]
Not Active: IC50 [1] | IC50 (Thromboxane-A synthase) | IC50 (D(3) dopamine receptor) | IC50 [2] | IC50 (Cytochrome P450 2A6) | Ki (Cytochrome P450 2A6)

COc1ccc2c(c1)c(CC(=O)O)c(C)n2C(=O)c1ccc(Cl)cc1 [INDOMETHACIN]
Not Active: IC50 [1] | IC50 (Thromboxane-A synthase) | IC50 (D(3) dopamine receptor) | IC50 [2] | IC50 (Cytochrome P450 2A6) | Ki (Cytochrome P450 2A6)

CCc1c2c(nc3ccc(OC(=O)N4CCC(N5CCCCC5)CC4)cc13)-c1cc3c(c(=O)n1C2)COC(=O)[C@]3(O)CC [IRINOTECAN]
Not Active: IC50 [1] | IC50 (Thromboxane-A synthase) | IC50 (D(3) dopamine receptor) | IC50 [2] | IC50 (Cytochrome P450 2A6) | Ki (Cytochrome P450 2A6)

CC(C(=O)O)c1cccc(C(=O)c2ccccc2)c1 (configuration not stated) [KETOPROFEN]
Not Active: IC50 [1] | IC50 (Thromboxane-A synthase) | IC50 (D(3) dopamine receptor) | IC50 [2] | IC50 (Cytochrome P450 2A6) | Ki (Cytochrome P450 2A6)

Nc1ccn([C@@H]2CS[C@H](CO)O2)c(=O)n1 [LAMIVUDINE]
Not Active: IC50 [1] | IC50 (Thromboxane-A synthase) | IC50 (D(3) dopamine receptor) | IC50 [2] | IC50 (Cytochrome P450 2A6) | Ki (Cytochrome P450 2A6)

O=S(=O)([O-])CCS.[Na+] [MESNA]
Not Active: IC50 [1] | IC50 (Thromboxane-A synthase) | IC50 (D(3) dopamine receptor) | IC50 [2] | IC50 (Cytochrome P450 2A6) | Ki (Cytochrome P450 2A6)

C#C[C@]1(O)CC[C@H]2[C@@H]3CCc4cc(OC)ccc4[C@H]3CC[C@@]21C [MESTRANOL]
Not Active: IC50 [1] | IC50 (Thromboxane-A synthase) | IC50 (D(3) dopamine receptor) | IC50 [2] | IC50 (Cytochrome P450 2A6) | Ki (Cytochrome P450 2A6)

CC(=O)Nc1cccc(O)c1 [METACETAMOL]
Not Active: IC50 [1] | IC50 (Thromboxane-A synthase) | IC50 (D(3) dopamine receptor) | IC50 [2] | IC50 (Cytochrome P450 2A6) | Ki (Cytochrome P450 2A6)

Cc1ncc([N+](=O)[O-])n1CCO [METRONIDAZOLE]
Not Active: IC50 [1] | IC50 (Thromboxane-A synthase) | IC50 (D(3) dopamine receptor) | IC50 [2] | IC50 (Cytochrome P450 2A6) | Ki (Cytochrome P450 2A6)

CC(C)(C(=O)c1cccnc1)c1cccnc1 [METYRAPONE]
Not Active: IC50 [1] | IC50 (Thromboxane-A synthase) | IC50 (D(3) dopamine receptor) | IC50 [2] | IC50 (Cytochrome P450 2A6) | Ki (Cytochrome P450 2A6)

Oc1ccc(OCc2ccccc2)cc1 [MONOBENZONE]
Not Active: IC50 [1] | IC50 (Thromboxane-A synthase) | IC50 (D(3) dopamine receptor) | IC50 [2] | IC50 (Cytochrome P450 2A6) | Ki (Cytochrome P450 2A6)

CC(C)(Oc1ccc(C2CCCc3ccccc32)cc1)C(=O)O (configuration not stated) [NAFENOPIN]
Not Active: IC50 [1] | IC50 (Thromboxane-A synthase) | IC50 (D(3) dopamine receptor) | IC50 [2] | IC50 (Cytochrome P450 2A6) | Ki (Cytochrome P450 2A6)

CC(C)[C@H]1CC[C@H](C(=O)N[C@H](Cc2ccccc2)C(=O)O)CC1 [NATEGLINIDE]
Not Active: IC50 [1] | IC50 (Thromboxane-A synthase) | IC50 (D(3) dopamine receptor) | IC50 [2] | IC50 (Cytochrome P450 2A6) | Ki (Cytochrome P450 2A6)

CCN[C@@H]1C[C@H](N)[C@@H](O[C@H]2OC(CN)=CC[C@H]2N)[C@H](O)[C@H]1O[C@H]1OC[C@](C)(O)[C@H](NC)[C@H]1O [NETILMICIN]
Not Active: IC50 [1] | IC50 (Thromboxane-A synthase) | IC50 (D(3) dopamine receptor) | IC50 [2] | IC50 (Cytochrome P450 2A6) | Ki (Cytochrome P450 2A6)

COC(=O)C1=C(C)NC(C)=C(C(=O)OCC(C)C)C1c1ccccc1[N+](=O)[O-] (configuration not stated) [NISOLDIPINE]
Not Active: IC50 [1] | IC50 (Thromboxane-A synthase) | IC50 (D(3) dopamine receptor) | IC50 [2] | IC50 (Cytochrome P450 2A6) | Ki (Cytochrome P450 2A6)

CCOC(=O)C1=C(C)NC(C)=C(C(=O)OC)C1c1cccc([N+](=O)[O-])c1 (configuration not stated) [NITRENDIPINE]
Not Active: IC50 [1] | IC50 (Thromboxane-A synthase) | IC50 (D(3) dopamine receptor) | IC50 [2] | IC50 (Cytochrome P450 2A6) | Ki (Cytochrome P450 2A6)
